According to patent US20230365589A1, “NOVEL AMINE DERIVATIVES” (Sumitomo Pharma Co., Ltd., priority 2020, published 2023):
pIC50: −log10 of the molar value. Read-outs that look alike come from different tables or passages of the source.

Experiments:
Assay type in all cases: biochemical
DYRK2 = target: T1, DYRK2 (Homo sapiens, UniProt Q92630); assay: Inhibition test on activity of DYRK family, mobility shift assay (MSA): DYRK2
T1 construct: purchased Carna Biosciences, Inc. 04-132
T1 sequence (Q92630 74-601 limits assumed): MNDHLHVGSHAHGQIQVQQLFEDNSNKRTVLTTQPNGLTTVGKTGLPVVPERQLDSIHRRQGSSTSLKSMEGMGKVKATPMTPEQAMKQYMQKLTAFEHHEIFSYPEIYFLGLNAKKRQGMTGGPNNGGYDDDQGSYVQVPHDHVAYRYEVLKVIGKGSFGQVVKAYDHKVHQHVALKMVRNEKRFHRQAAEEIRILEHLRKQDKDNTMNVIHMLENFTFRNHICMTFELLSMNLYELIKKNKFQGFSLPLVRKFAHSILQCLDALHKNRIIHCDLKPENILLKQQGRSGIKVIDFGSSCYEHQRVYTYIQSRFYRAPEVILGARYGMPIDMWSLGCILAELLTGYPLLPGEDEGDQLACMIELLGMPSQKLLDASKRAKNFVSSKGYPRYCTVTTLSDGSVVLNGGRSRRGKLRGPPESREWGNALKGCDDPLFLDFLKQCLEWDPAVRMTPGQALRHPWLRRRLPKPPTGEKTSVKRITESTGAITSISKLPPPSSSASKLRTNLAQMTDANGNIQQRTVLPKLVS
In short: (§1)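 Mobility-shift readout of FITC-DYRKtide phosphorylation in 20 mM HEPES pH 7.5. The substrate mix held 4 µM peptide, 20 mM MgCl2 and ATP at 100 (1A), 200 (1B), 40 (2) or 20 µM (3). Reaction 1 h at room temperature; IC50 from regression of P/(P+S)-based inhibition vs log concentration.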

DYRK1A = target: T2, DYRK1A (Homo sapiens, UniProt Q13627); assay: Inhibition test on activity of DYRK family, mobility shift assay (MSA): DYRK1A
T2 construct: purchased Carna Biosciences, Inc. 04-130
In short: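 Mobility shift assay with recombinant DYRK1A (0.2 ng/μL enzyme solution), FITC-DYRKtide substrate (4 μM in substrate mix), 100 μM ATP in substrate mix, HEPES pH 7.5 buffer with MgCl2; 1 h at room temperature. Phosphorylated vs unphosphorylated peptide peaks quantified; IC50 from regression of inhibition rate against log concentration.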

DYRK3 = target: T3, DYRK3 (Homo sapiens, UniProt O43781); assay: Inhibition test on activity of DYRK family, mobility shift assay (MSA): DYRK3
T3 construct: purchased Carna Biosciences, Inc. 04-133
T3 sequence (O43781 1-568 isoform O43781-2): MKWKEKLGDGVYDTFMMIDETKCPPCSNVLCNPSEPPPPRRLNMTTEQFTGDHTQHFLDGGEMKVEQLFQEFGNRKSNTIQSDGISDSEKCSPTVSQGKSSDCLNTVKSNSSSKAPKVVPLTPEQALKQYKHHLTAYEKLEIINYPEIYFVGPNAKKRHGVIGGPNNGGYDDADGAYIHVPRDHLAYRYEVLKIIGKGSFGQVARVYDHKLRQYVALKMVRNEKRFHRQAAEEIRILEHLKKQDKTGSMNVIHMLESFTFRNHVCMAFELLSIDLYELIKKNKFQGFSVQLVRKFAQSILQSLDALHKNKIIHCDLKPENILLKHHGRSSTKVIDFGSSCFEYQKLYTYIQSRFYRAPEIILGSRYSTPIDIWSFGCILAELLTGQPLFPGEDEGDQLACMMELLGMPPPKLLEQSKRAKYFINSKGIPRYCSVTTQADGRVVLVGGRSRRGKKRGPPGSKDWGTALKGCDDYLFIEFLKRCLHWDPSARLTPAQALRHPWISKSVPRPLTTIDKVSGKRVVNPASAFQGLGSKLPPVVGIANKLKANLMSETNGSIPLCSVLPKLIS
In short: as §1

[1] = MSA, FITC-labeled DYRKtide peptide, ATP 40 μM, read-out: Inhibitory activity DYRK 2 (IC50 class)
[2] = MSA, FITC-labeled DYRKtide peptide, ATP 100 μM, read-out: Inhibitory activity DYRK 1A (IC50 class)
[3] = MSA, FITC-labeled DYRKtide peptide, ATP 20 μM, read-out: Inhibitory activity DYRK 3 (IC50 class)
[4] = read-out: Inhibitory activity DYRK 2
[5] = read-out: Inhibitory activity DYRK 1A
[6] = read-out: Inhibitory activity DYRK 3

Row | SMILES | pIC50 (DYRK2; [1]) | pIC50 (DYRK1A; [2]) | pIC50 (DYRK3; [3]) | pIC50 (DYRK2; [4]) | pIC50 (DYRK1A; [5]) | pIC50 (DYRK3; [6])
1 | CN1C[C@@H]2NC(=O)N(c3nc4c5c(ccc4s3)OCC5)[C@@H]2[C@@H](F)C1 [Example 74] | ≤ 6.00 | 6.00 to 7.00 | 6.00 to 7.00 | – | – | –
2 | CC(C)(C)OC(=O)N1CC(N2CC[C@@H]3NC(=O)N(c4nc5c6c(ccc5s4)OCC6)[C@@H]3C2)C1 [Example 82] | ≤ 6.00 | 7.00 to 8.00 | ≤ 6.00 | – | – | –
3 | CN1CCC[C@@H]2[C@H](C1)NC(=O)N2c1nc2c3c(ccc2s1)OCO3 [Example 84] | 6.00 to 7.00 | 7.00 to 8.00 | 6.00 to 7.00 | – | – | –
4 | O=C1N[C@H]2CN(C3CC3)CC[C@H]2N1c1nc2c3c(ccc2s1)OCO3 [Example 87] | 6.00 to 7.00 | 6.00 to 7.00 | ≤ 6.00 | – | – | –
5 | O=C1N[C@H]2CN(C3CC3)CC[C@H]2N1c1nc2c3c(ccc2s1)OCCO3 [Example 88] | ≤ 6.00 | 6.00 to 7.00 | ≤ 6.00 | – | – | –
6 | CN1C[C@@H]2NC(=O)N(c3nc4c5c(ccc4s3)OCC5)[C@@H]2CC12CC2 [Example 89] | ≤ 6.00 | 6.00 to 7.00 | ≤ 6.00 | – | – | –
7 | CN1C[C@@H]2[C@H](CC13CC3)NC(=O)N2c1nc2c3c(ccc2s1)OCC3 [Example 90] | 6.00 to 7.00 | 7.00 to 8.00 | 6.00 to 7.00 | – | – | –
8 | C[C@@H]1NC(=O)N(c2nc3c4c(ccc3s2)OCC4)[C@@H]1CN1CC[C@H](F)C1 [Example 115, (4S,5R)-1-(7,8-dihydrofuro[3,2-e][1,3]benzothiazol-2-yl)-5-{[(3S)-3-fluoropyrrolidin-1-yl]methyl}-4-methylimidazolidin-2-one] | – | – | – | 6.00 to 7.00 | 7.00 to 8.00 | ≤ 6.00
9 | C[C@@H]1NC(=O)N(c2nc3c4c(ccc3s2)OCC4)[C@@H]1CN1CC(F)(F)C1 [Example 116, (4S,5R)-5-[(3,3-difluoroazetidin-1-yl)methyl]-1-(7,8-dihydrofuro[3,2-e][1,3]benzothiazol-2-yl)-4-methylimidazolidin-2-one] | – | – | – | ≤ 6.00 | 7.00 to 8.00 | ≤ 6.00
10 | C[C@@H]1NC(=O)N(c2nc3c4c(ccc3s2)OCC4)[C@@H]1CN1CCC(F)(F)C1 [Example 117, (4S,5R)-5-[(3,3-difluoropyrrolidin-1-yl)methyl]-1-(7,8-dihydrofuro[3,2-e][1,3]benzothiazol-2-yl)-4-methylimidazolidin-2-one] | – | – | – | ≤ 6.00 | 7.00 to 8.00 | ≤ 6.00
11 | C[C@@H]1NC(=O)N(c2nc3c4c(ccc3s2)OCC4)[C@@H]1CN1CC(F)C1 [Example 118, (4S,5R)-1-(7,8-dihydrofuro[3,2-e][1,3]benzothiazol-2-yl)-5-[(3-fluoroazetidin-1-yl)methyl]-4-methylimidazolidin-2-one] | – | – | – | ≤ 6.00 | 7.00 to 8.00 | ≤ 6.00
12 | N#C[C@H]1C[C@@H]2[C@H](CO1)NC(=O)N2c1nc2c3c(ccc2s1)OCC3 [Example 127, (3aR,6R,7aR)-1-(7,8-dihydrofuro[3,2-e][1,3]benzothiazol-2-yl)-2-oxooctahydropyrano[3,4-d]imidazole-6-carbonitrile] | – | – | – | 6.00 to 7.00 | > 8.00 | 6.00 to 7.00
13 | N#C[C@H]1C[C@H]2NC(=O)N(c3nc4c5c(ccc4s3)OCC5)[C@H]2CO1 [Example 128] | – | – | – | ≤ 6.00 | ≤ 6.00 | ≤ 6.00
14 | CO[C@H]1C[C@@H]2[C@H](CO1)NC(=O)N2c1nc2c3c(ccc2s1)OCC3 [Example 129, (3aR,6R,7aR)-1-(7,8-dihydrofuro[3,2-e][1,3]benzothiazol-2-yl)-6-methoxyhexahydropyrano[3,4-d]imidazol-2(3H)-one] | – | – | – | 6.00 to 7.00 | 7.00 to 8.00 | 6.00 to 7.00
15 | CO[C@H]1C[C@H]2NC(=O)N(c3nc4c5c(ccc4s3)OCC5)[C@H]2CO1 [Example 130] | – | – | – | ≤ 6.00 | 6.00 to 7.00 | ≤ 6.00
16 | N#C[C@H]1C[C@@H]2[C@H](CO1)NC(=O)N2c1nc2c3c(ccc2s1)OCO3 [Example 131, (3aR,6R,7aR)-1-(2H-[1,3]dioxolo[4,5-e][1,3]benzothiazol-7-yl)-2-oxooctahydropyrano[3,4-d]imidazole-6-carbonitrile] | – | – | – | 6.00 to 7.00 | > 8.00 | 6.00 to 7.00
17 | N#C[C@H]1C[C@H]2NC(=O)N(c3nc4c5c(ccc4s3)OCO5)[C@H]2CO1 [Example 132] | – | – | – | ≤ 6.00 | ≤ 6.00 | ≤ 6.00

The next lines start with the values.

Row | pIC50 (DYRK2; [1]) | pIC50 (DYRK1A; [2]) | pIC50 (DYRK3; [3]) | pIC50 (DYRK2; [4]) | pIC50 (DYRK1A; [5]) | pIC50 (DYRK3; [6]) | SMILES
18 | ≤ 6.00 | 6.00 to 7.00 | 6.00 to 7.00 | – | – | – | CN1CC[C@@H]2NC(=O)N(c3nc4c5c(ccc4s3)OCC5)[C@@H]2CC1 [Example 67]
19 | ≤ 6.00 | 6.00 to 7.00 | 6.00 to 7.00 | – | – | – | CN1CC[C@@H]2[C@@H](NC(=O)N2c2nc3c4c(ccc3s2)OCC4)C12CC2 [Example 68]
20 | ≤ 6.00 | 7.00 to 8.00 | ≤ 6.00 | – | – | – | CN1C[C@@H](F)[C@@H]2NC(=O)N(c3nc4c5c(ccc4s3)OCC5)[C@@H]2C1 [Example 75]
21 | ≤ 6.00 | 6.00 to 7.00 | 6.00 to 7.00 | – | – | – | CN1CC(N2CC[C@@H]3NC(=O)N(c4nc5c6c(ccc5s4)OCC6)[C@@H]3C2)C1 [Example 83]
22 | 6.00 to 7.00 | 7.00 to 8.00 | 7.00 to 8.00 | – | – | – | C[C@H]1[C@H]2NC(=O)N(c3nc4c5c(ccc4s3)OCC5)C2CCN1C (stereo partly drawn) [Example 91]
23 | – | – | – | ≤ 6.00 | 6.00 to 7.00 | ≤ 6.00 | C[C@H]1C[C@H]2NC(=O)N(c3nc4c5c(ccc4s3)OCC5)C2CN1C (stereo partly drawn) [Example 92]
24 | – | – | – | ≤ 6.00 | 7.00 to 8.00 | 6.00 to 7.00 | C[C@H]1C[C@@H]2[C@H](CN1C)NC(=O)N2c1nc2c3c(ccc2s1)OCC3 [Example 93, (3aS,6S,7aR)-1-(7,8-dihydrofuro[3,2-e][1,3]benzothiazol-2-yl)-5,6-dimethyloctahydro-2H-imidazo[4,5-c]pyridin-2-one]
25 | – | – | – | ≤ 6.00 | 6.00 to 7.00 | ≤ 6.00 | C[C@H]1[C@@H]2[C@H](CCN1C)NC(=O)N2c1nc2c3c(ccc2s1)OCC3 [Example 94]
26 | – | – | – | 6.00 to 7.00 | 6.00 to 7.00 | 6.00 to 7.00 | C[C@H]1[C@H]2[C@@H](CCN1C)NC(=O)N2c1nc2c3c(ccc2s1)OCC3 [Example 95]
27 | – | – | – | ≤ 6.00 | 6.00 to 7.00 | ≤ 6.00 | C[C@@H]1C[C@@H]2NC(=O)N(c3nc4c5c(ccc4s3)OCC5)[C@@H]2CN1C [Example 96]
28 | – | – | – | ≤ 6.00 | 6.00 to 7.00 | ≤ 6.00 | C[C@@H]1[C@@H]2NC(=O)N(c3nc4c5c(ccc4s3)OCC5)[C@@H]2CCN1C [Example 97]
29 | – | – | – | ≤ 6.00 | 7.00 to 8.00 | ≤ 6.00 | O=C1N[C@H]2CN(C3CC3)C[C@H]2N1c1nc2c3c(ccc2s1)OCC3 [Example 101]
30 | – | – | – | ≤ 6.00 | ≤ 6.00 | ≤ 6.00 | CC1(C)C[C@H]2[C@@H](CO1)NC(=O)N2c1nc2c3c(ccc2s1)OCC3 [Example 123]
31 | – | – | – | 6.00 to 7.00 | > 8.00 | 6.00 to 7.00 | CC1(C)C[C@@H]2[C@H](CO1)NC(=O)N2c1nc2c3c(ccc2s1)OCC3 [Example 124, (3aR,7aR)-1-(7,8-dihydrofuro[3,2-e][1,3]benzothiazol-2-yl)-6,6-dimethylhexahydropyrano[3,4-d]imidazol-2(3H)-one]
32 | – | – | – | 6.00 to 7.00 | 7.00 to 8.00 | 6.00 to 7.00 | O=C1N[C@@H]2CCOC[C@H]2N1c1nc2c3c(ccc2s1)OCC3 [Example 125]
33 | – | – | – | 6.00 to 7.00 | 6.00 to 7.00 | 6.00 to 7.00 | O=C1N[C@@H]2COCC[C@H]2N1c1nc2c3c(ccc2s1)OCC3 [Example 126]
